ChEMBL document CHEMBL1148336, “3-Aminopyrazole inhibitors of CDK2/cyclin A as antitumor agents. 1. Lead finding” (J Med Chem, 2004)

Key:
[1] = target: Cyclin-dependent kinase 2/cyclin A (Homo sapiens, UniProt P24941); experiment: In vitro inhibitory concentration against cyclin-dependent kinase 2-cyclin A complex using ATP/P33gamma-ATP mix as radioligand; type: protein-complex assay
A2780 = experiment: Antiproliferative activity against human A2780 cells; type: functional, cell-based

| IC50 [1] [nM] | IC50 (A2780) [nM] | SMILES |
| --- | --- | --- |
| 705 |  | COc1ccc(C(=O)Nc2cc(C3CC3)[nH]n2)cc1 |
| 90 |  | O=C(Nc1cc(C2CCC2)[nH]n1)c1ccc(Br)cc1 |
| 4 | 1470 | NC(=O)c1ccc(-c2ccc(CC(=O)Nc3cc(C4CC4)[nH]n3)cc2)cc1 |
| > 10000 |  | CCC(C)c1cc(NC(=O)c2ccc(Br)cc2)[nH]n1 (stereo not given) |
| 11 | > 20000 | O=C(Cc1ccc(-c2ccc(C(=O)O)cc2)cc1)Nc1cc(C2CC2)[nH]n1 |
| > 10000 |  | O=C(Nc1cc(-c2ccccc2)[nH]n1)c1ccc(Br)cc1 |
| 650 |  | CCCc1cc(NC(=O)c2ccc(Br)cc2)n[nH]1 |
| 4 | 182 | O=C(Cc1ccc(-c2cccc(F)c2)cc1)Nc1cc(C2CC2)[nH]n1 |
| 9 | 205 | Cc1cccc(-c2ccc(CC(=O)Nc3cc(C4CC4)[nH]n3)cc2)c1 |
| 48 | 1400 | O=C(Cc1ccccc1)Nc1cc(C2CC2)[nH]n1 |
|  | > 20000 | COc1cccc(CC(=O)Nc2cc(C3CC3)[nH]n2)c1 |
| 1500 |  | Cc1cc(NC(=O)c2ccccc2)n[nH]1 |
| > 10000 |  | CCCC(=O)Nc1cc(C)[nH]n1 |
| 34 |  | O=C(Nc1cc(C2CC2)[nH]n1)c1ccc(Br)cc1 |
|  | 111 | O=C(Cc1ccc(-c2ccccc2)cc1)Nc1cc(C2CC2)[nH]n1 |
| 83 |  | O=C(Nc1cc(C2CC2)[nH]n1)c1ccc(Cl)c(Cl)c1 |
| > 10000 |  | COc1ccccc1C(=O)Nc1cc(C2CC2)[nH]n1 |
|  | 6980 | O=C(Cc1ccc(OCCN2CCCC2)cc1)Nc1cc(C2CC2)[nH]n1 |
| > 10000 |  | CC(C)(C)c1cc(NC(=O)c2ccc(Br)cc2)n[nH]1 |
| 74 | 2840 | NC(=O)c1ccc(CC(=O)Nc2cc(C3CC3)[nH]n2)cc1 |
| 1000 |  | O=C(Nc1cc(C2CC2)[nH]n1)c1cccc(Cl)c1 |
|  | 900 | O=C(Cc1cccc2ccccc12)Nc1cc(C2CC2)[nH]n1 |
| > 10000 |  | O=C(Nc1cc(C2CC2)[nH]n1)c1c(Cl)cccc1Cl |
| 1000 |  | O=C(Nc1cc(C2CCCCC2)[nH]n1)c1ccc(Br)cc1 |
| 500 |  | O=C(Nc1cc(C2CC2)[nH]n1)c1cccc(C(F)(F)F)c1 |
| 50 |  | O=C(Nc1cc(C2CCCC2)[nH]n1)c1ccc(Br)cc1 |
| 600 |  | COc1cccc(C(=O)Nc2cc(C3CC3)n[nH]2)c1 |
| > 10000 |  | O=C(Nc1cc(Cc2ccccc2)[nH]n1)c1ccc(Br)cc1 |
| 200 |  | CC(C)c1cc(NC(=O)c2ccc(Br)cc2)n[nH]1 |
